Measurements reported in patent US20240116985A1, “STAPLED PEPTIDES AND METHODS THEREOF” (priority 2020, published 2024).
Where two headings read alike, the source gives them in different places.

Columns and labels:
[1] = target: T1, full-length beta-Catenin (Uniprot ID P35222) (Homo sapiens, UniProt P35222); experiment: Fluorescence polarization IC50 (beta-catenin / 5FAM-TCF4 10-53 competition); assay type: binding; conditions: fluorescence polarization; read-out: beta-Catenin FP IC50
T1 construct: 10 nM full-length beta-Catenin (Uniprot ID P35222)
T1 sequence (P35222 1-781): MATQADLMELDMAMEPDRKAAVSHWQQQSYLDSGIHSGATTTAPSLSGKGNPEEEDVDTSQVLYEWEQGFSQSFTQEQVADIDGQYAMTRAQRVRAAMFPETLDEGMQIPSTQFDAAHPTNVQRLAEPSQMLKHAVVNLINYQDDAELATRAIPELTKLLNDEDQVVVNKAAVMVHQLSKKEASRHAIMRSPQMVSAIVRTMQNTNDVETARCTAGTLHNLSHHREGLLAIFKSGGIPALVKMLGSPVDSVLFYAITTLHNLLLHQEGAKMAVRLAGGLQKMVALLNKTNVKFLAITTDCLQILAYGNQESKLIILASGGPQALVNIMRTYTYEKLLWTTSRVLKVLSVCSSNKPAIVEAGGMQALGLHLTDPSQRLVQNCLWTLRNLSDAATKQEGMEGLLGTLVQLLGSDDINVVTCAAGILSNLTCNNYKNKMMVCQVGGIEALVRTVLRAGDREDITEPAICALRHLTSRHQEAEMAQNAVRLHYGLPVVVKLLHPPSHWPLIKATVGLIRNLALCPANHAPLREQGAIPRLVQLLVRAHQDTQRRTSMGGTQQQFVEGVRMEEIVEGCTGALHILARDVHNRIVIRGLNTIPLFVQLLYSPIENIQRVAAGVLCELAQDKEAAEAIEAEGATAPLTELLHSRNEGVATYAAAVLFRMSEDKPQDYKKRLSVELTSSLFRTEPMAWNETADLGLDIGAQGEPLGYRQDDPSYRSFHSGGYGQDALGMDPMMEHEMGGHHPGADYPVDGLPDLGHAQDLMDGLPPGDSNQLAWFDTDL

[2] = target: T2, beta-catenin/TCF4 engagement (Homo sapiens, UniProt P35222); experiment: Nano-BRET target engagement assay (B-cat-Halo & TCF4-Luc in HEK293 cells); assay type: cell-based; conditions: read-out: NanoBRET Abs IC50
T2 construct: expressed in transfected cells; host or cells: HEK293
T2 sequence (P35222 1-781): T1 sequence (P35222 1-781)

Row | IC50 [1] [nM] | IC50 [2] [nM] | IC50 ([2]; absolute IC50) [nM] | SMILES
1 | 38 | > 20000 |  | CC(=O)N1CCC[C@]12CC=CCCCC1(CCCC=CCCCOC(=O)N3CC[C@@](C(=O)N[C@@H](Cc4ccsc4)C(=O)N[C@@H](Cc4csc5ccccc45)C(=O)N[C@@H](Cc4ccccc4)C(N)=O)(C3)NC(=O)[C@H](CC(C)C)NC(=O)[C@H](Cc3ccccc3)NC(=O)[C@H](C)NC(=O)[C@H](CCCCN)NC(=O)[C@H](Cc3cccc(C(=O)O)c3)NC(=O)[C@H](CC(=O)O)NC1=O)NC(=O)[C@H](CC(C)(C)C)NC(=O)[C@H](CC(=O)O)NC2=O (stereo partly drawn) [I-1911, Ac-PL3-Asp-Npg-B5-Asp-3COOHF-Lys-Ala-Phe-Leu-PyrS2-3Thi-BztA-Phe-NH2]
2 | 11 | 5000 |  | CC(=O)N1CCC[C@]12CC=CCCCC1(CCCC=CCCCOC(=O)N3CC[C@@](C(=O)N[C@@H](Cc4ccsc4)C(=O)N[C@@H](Cc4csc5ccccc45)C(=O)N[C@@H](C)C(N)=O)(C3)NC(=O)[C@H](C)NC(=O)[C@H](Cc3ccccc3)NC(=O)[C@H](C)NC(=O)[C@H](CCC(N)=O)NC(=O)[C@H](Cc3cccc(C(=O)O)c3)NC(=O)[C@H](CC(=O)O)NC1=O)NC(=O)[C@H](CC(C)(C)C)NC(=O)[C@H](CC(=O)O)NC2=O (stereo partly drawn) [I-2053, Ac-PL3-Asp-Npg-B5-Asp-3COOHF-Gln-Ala-Phe-Ala-PyrS2-3Thi-BztA-Ala-NH2]
3 | 14 | 37300 |  | CC(=O)N1CCC[C@]12CC=CCCCC1(CCCC=CCCCOC(=O)N3CC[C@@](C(=O)N[C@@H](Cc4ccsc4)C(=O)N[C@@H](Cc4csc5ccccc45)C(=O)N[C@@H](CCC(N)=O)C(N)=O)(C3)NC(=O)[C@H](Cn3cc(CN(C)C)nn3)NC(=O)[C@H](Cc3ccccc3)NC(=O)[C@H](C)NC(=O)[C@H](C)NC(=O)[C@H](CN(CC(=O)O)CC(F)(F)F)NC(=O)[C@H](CC(=O)O)NC1=O)NC(=O)[C@H](CC(C)(C)C)NC(=O)[C@H](CC(=O)O)NC2=O (stereo partly drawn) [I-1861, Ac-PL3-Asp-Npg-B5-Asp-TfeGA-Ala-Ala-Phe-[CH2NMe2]TriAzDap-PyrS2-3Thi-BztA-Gln-NH2]
4 | 42 |  | > 20000 | CC(=O)N1CCC[C@]12CC=CCCCC1(CCCC=CCCCOC(=O)N3CC[C@@](C(=O)N[C@@H](Cc4ccsc4)C(=O)N[C@@H](Cc4csc5ccccc45)C(=O)N[C@@H](CCC(N)=O)C(N)=O)(C3)NC(=O)[C@H](CCO)NC(=O)[C@H](Cc3ccccc3)NC(=O)[C@H](C)NC(=O)[C@H](C)NC(=O)[C@H](CCc3ccc(O)cc3)NC(=O)[C@H](CC(=O)O)NC1=O)NC(=O)[C@H](CC(C)(C)C)NC(=O)[C@H](CC(=O)O)NC2=O (stereo partly drawn) [I-1786, Ac-PL3-Asp-Npg-B5-Asp-hTyr-Ala-Ala-Phe-Hse-PyrS2-3Thi-BztA-Gln-NH2]
5 | 10 | > 20000 |  | CC(=O)N1CCC[C@]12CC=CCCCC1(CCCC=CCCCOC(=O)N3CC[C@@](C(=O)N[C@@H](Cc4ccsc4)C(=O)N[C@@H](Cc4csc5ccccc45)C(=O)N[C@@H](CCC(N)=O)C(N)=O)(C3)NC(=O)[C@H](Cn3cc(CN4CCOCC4)nn3)NC(=O)[C@H](Cc3ccccc3)NC(=O)[C@H](C)NC(=O)[C@H](C)NC(=O)[C@H](CN(CC(=O)O)CC(F)(F)F)NC(=O)[C@H](CC(=O)O)NC1=O)NC(=O)[C@H](CC(C)(C)C)NC(=O)[C@H](CC(=O)O)NC2=O (stereo partly drawn) [I-1865, Ac-PL3-Asp-Npg-B5-Asp-TfeGA-Ala-Ala-Phe-[MorphCH2]TriAzDap-PyrS2-3Thi-BztA-Gln-NH2]
6 | 49 | 6200 |  | CC(=O)N1CCC[C@]12CC=CCCCC1(CCCC=CCCCOC(=O)N3CC[C@@](C(=O)N[C@@H](Cc4ccccc4C(F)(F)F)C(=O)N[C@@H](Cc4csc5ccccc45)C(=O)N[C@H](C)C(N)=O)(C3)NC(=O)[C@H](CC(C)C)NC(=O)[C@H](Cc3ccccc3)NC(=O)[C@H](C)NC(=O)[C@H](C)NC(=O)[C@H](Cc3cccc(C(=O)O)c3)NC(=O)[C@H](CC(=O)O)NC1=O)NC(=O)[C@H](CC(C)(C)C)NC(=O)[C@H](CC(=O)O)NC2=O (stereo partly drawn) [I-2091, Ac-PL3-Asp-Npg-B5-Asp-3COOHF-Ala-Ala-Phe-Leu-PyrS2-2F3MeF-BztA-dAla-NH2]
7 | 5 | 6200 |  | CC(=O)N1CCC[C@]12CC=CCCCC1(CCCC=CCCCOC(=O)N3CC[C@@](C(=O)N[C@@H](Cc4ccsc4)C(=O)N[C@@H](Cc4csc5ccccc45)C(=O)N[C@@H](CCC(N)=O)C(N)=O)(C3)NC(=O)[C@H](CC(C)C)NC(=O)[C@H](Cc3ccccc3)NC(=O)[C@H](C)NC(=O)[C@H](C)NC(=O)[C@H](Cn3cc(C(C)(C)C(=O)O)nn3)NC(=O)[C@H](CC(=O)O)NC1=O)NC(=O)[C@H](CC(C)(C)C)NC(=O)[C@H](CC(=O)O)NC2=O (stereo partly drawn) [I-2085, Ac-PL3-Asp-Npg-B5-Asp-[CMe2CO2H]TriAzDap-Ala-Ala-Phe-Leu-PyrS2-3Thi-BztA-Gln-NH2]
8 | 210 |  | > 20000 | CC(=O)N1CCC[C@]12CC=CCCCC1(CCCC=CCCCOC(=O)N3CC[C@@](C(=O)N[C@@H](Cc4ccccc4)C(=O)N[C@@H](Cc4csc5ccccc45)C(=O)N[C@@H](CC(=O)N4CCOCC4)C(N)=O)(C3)NC(=O)[C@H](CC(C)C)NC(=O)[C@H](Cc3ccccc3)NC(=O)[C@H](C)NC(=O)[C@H](CCC(N)=O)NC(=O)[C@H](CCC(N)=O)NC(=O)[C@H](CC(=O)O)NC1=O)NC(=O)[C@H](CC1CCCCC1)NC(=O)[C@H](CC(N)=O)NC2=O (stereo partly drawn) [I-2504, Ac-PL3-Asn-Cha-B5-Asp-Gln-Gln-Ala-Phe-Leu-PyrS2-Phe-BztA-MorphAsn-NH2]
9 | 128 |  | 12400 | CC(=O)N1CCC[C@]12CC=CCCCC1(CCCC=CCCCOC(=O)N3CC[C@@](C(=O)N[C@@H](Cc4ccccc4Cl)C(=O)N[C@@H](Cc4csc5ccccc45)C(=O)N[C@@H](CO)C(N)=O)(C3)NC(=O)[C@H](CC(C)C)NC(=O)[C@H](Cc3ccccc3)NC(=O)[C@H](C)NC(=O)[C@H](C)NC(=O)[C@H](Cc3cc(C(=O)O)cc(C(F)(F)F)c3)NC(=O)[C@H](CC(=O)O)NC1=O)NC(=O)[C@H](CC(C)(C)C)NC(=O)[C@H](CC(=O)O)NC2=O (stereo partly drawn) [I-2210, Ac-PL3-Asp-Npg-B5-Asp-5F3Me3COOHF-Ala-Ala-Phe-Leu-PyrS2-2C1F-BztA-Ser-NH2]
10 | 13 |  | > 20000 | CC(=O)N1CCC[C@]12CC=CCCCC1(CCCC=CCCCOC(=O)N3CC[C@@](C(=O)N[C@@H](Cc4ccsc4)C(=O)N[C@@H](Cc4csc5ccccc45)C(=O)N[C@@H](Cc4ccccc4)C(N)=O)(C3)NC(=O)[C@H]([C@@H](C)O)NC(=O)[C@H](Cc3ccccc3)NC(=O)[C@H](C)NC(=O)[C@H](CCCCNC(C)C)NC(=O)[C@H](CN(CC(=O)O)CC(F)(F)F)NC(=O)[C@H](CC(=O)O)NC1=O)NC(=O)[C@H](CC(C)(C)C)NC(=O)[C@H](CC(=O)O)NC2=O (stereo partly drawn) [I-1762, Ac-PL3-Asp-Npg-B5-Asp-TfeGA-iPrLys-Ala-Phe-Thr-PyrS2-3Thi-BztA-Phe-NH2]
11 | 106 |  | > 20000 | CC(=O)N1CCC[C@]12CC=CCCCC1(CCCC=CCCCOC(=O)N3CC[C@@](C(=O)N[C@@H](Cc4ccsc4)C(=O)N[C@@H](Cc4csc5ccccc45)C(=O)N[C@@H](CC(N)=O)C(N)=O)(C3)NC(=O)[C@H](CC(=O)N(C)C)NC(=O)[C@H](Cc3ccccc3)NC(=O)[C@H](C)NC(=O)C(C)(C)NC(=O)[C@H]([C@@H](C)O)NC(=O)[C@H](CC(N)=O)NC1=O)NC(=O)[C@H](CC(C)(C)C)NC(=O)[C@H](CC(=O)O)NC2=O (stereo partly drawn) [I-2496, Ac-PL3-Asp-Npg-B5-Asn-Thr-Aib-Ala-Phe-Me2Asn-PyrS2-3Thi-BztA-Asn-NH2]
12 | 5 |  | 7300 | CC(=O)N1CCC[C@]12CC=CCCCC1(CCCC=CCCCOC(=O)N3CC[C@@](C(=O)N[C@@H](Cc4ccsc4)C(=O)N[C@@H](Cc4csc5ccccc45)C(=O)N[C@@H](CC(N)=O)C(N)=O)(C3)NC(=O)[C@H](CC(C)C)NC(=O)[C@H](Cc3ccccc3)NC(=O)[C@H](C)NC(=O)[C@H](C)NC(=O)[C@H](CC(=O)O)NC(=O)[C@H](CC(=O)O)NC1=O)NC(=O)[C@H](CC(C)(C)C)NC(=O)[C@H](CC(=O)O)NC2=O (stereo partly drawn) [I-1492, Ac-PL3-Asp-Npg-B5-Asp-Asp-Ala-Ala-Phe-Leu-PyrS2-3Thi-BztA-Asn-NH2]
13 | 362 |  | > 20000 | CC(=O)N1CCC[C@]12CC=CCCCC1(CCCC=CCCCOC(=O)N3CC[C@@](C(=O)N[C@@H](Cc4ccccc4)C(=O)N[C@@H](Cc4csc5ccccc45)C(=O)N[C@@H](CCC(N)=O)C(N)=O)(C3)NC(=O)[C@H](CC(N)=O)NC(=O)[C@H](Cc3ccccc3)NC(=O)[C@H](C)NC(=O)[C@H](CCCCNC(C)C)NC(=O)[C@H]([C@@H](C)O)NC(=O)[C@H](CC(=O)O)NC1=O)NC(=O)[C@H](CC(C)(C)C)NC(=O)[C@H](CC(N)=O)NC2=O (stereo partly drawn) [I-1602, Ac-PL3-Asn-Npg-B5-Asp-Thr-iPrLys-Ala-Phe-Asn-PyrS2-Phe-BztA-Gln-NH2]
